Entries after “also recorded” stand apart in the source; their conditions may differ. No end group written: not given here. *: point of attachment. NOTA = O=C(O)CN1CCN(CC(=O)O)CCN(CC(=O)*)CC1
Tests used:
MDA-MB-231 tumors = assay: In vivo PET imaging in mice xenografted with MDA-MB-231 breast tumors; conditions: NOG mice, MDA-MB-231 xenograft, intravenous, 30 min post tracer injection; FIG. 2
Method: All animal studies were carried out per regulations set forth and approved by the Johns Hopkins Animal Care and Use Committee at the Johns Hopkins Molecular Imaging Service Center. Female, 6-8 weeks old, immunodeficient (NOG) mice were inoculated with MDA-MB-231 (2 million) cells in 100 μL of Hank's balanced salt solution in the top mammary fat pad. Tumors averaging 200-300 mm^3 (typically 14 days after inoculation) were used for in vivo imaging and ex vivo biodistribution studies.
For PET imaging, mice were intravenously injected with 9-10 MBq (240-270 μCi) of the radiolabeled peptide in 200 μL of saline. Whole body PET imaging (2 beds; 15 min per bed) was carried out using a SEDCAL SuperArgus small animal PET/CT scanner 30 min post tracer injection. Following PET image acquisition, a CT scan (512 projections) was obtained on the same system for anatomical co-registration. PET data were reconstructed using the 3-dimensional ordered-subsets expectation maximization (3D-OSEM) algorithm and corrected for dead time and radioactive decay. Final data visualization and image generation was carried out using the Amira (FEI) software. Quantitative in vivo image analysis was done in AMIDE 1.0.5 (SourceForge) using ellipsoid region-of-interest volume integrations. Percentage of injected dose per cubic centimeter of tissue (% ID/cc) was calculated based on an external calibration factor obtained from a known quantity of radioactivity.

[1] = system: human triple negative breast cancer cell line, MDA-MB-231; assay: Cellular uptake of 18F-labeled peptide with blocking by unlabeled peptide; assay type: cell-based; conditions: MDA-MB-231 cells, 74 KBq 18F-labeled peptide, 37° C., blocking with 10-fold non-radioactive peptide; FIG. 1
Method: Prepared peptides were first analyzed in vitro using the human triple negative breast cancer cell line, MDA-MB-231. In brief, cells were detached using non-enzymatic buffer and 0.5 million cells per tube will be incubated with 74 KBq (2 μCi) of ^18F-labeled peptide in 100 μL phosphate-buffered saline (PBS) at 37° C. Experiments were done in triplicate and repeated three times to ensure reproducibility. Blocking was carried out using a 10-fold molar equivalence of the corresponding non-radioactive peptide analogue. The integrity of the radiolabeled compounds and their extent of decomposition was analyzed by RP-HPLC.

| Substance | accumulation in breast tumors (PET) (MDA-MB-231 tumors) | cellular uptake [1] | tumor uptake on PET compared to Pep61 (MDA-MB-231 tumors) |
| --- | --- | --- | --- |
| A-D-K(NOTA)-P-D-M-G-E-I-A-S-F-D-K (ADK(NOTA)PDMGEIASFDK; also: 18F label) [Pep61, tested 18F-labeled] | clear accumulation in breast tumors; also recorded: Accumulation and visualization of both peptides in breast tumors | taken up by MDA-MB-231 cells in a specific manner | – |
| A-D-K-P-D-M-G-E-I-A-S-F-D-K(NOTA) (ADKPDMGEIASFDK(NOTA); also: 18F label) [Pep62, tested 18F-labeled] | clear accumulation in breast tumors; also recorded: Accumulation and visualization of both peptides in breast tumors | taken up by MDA-MB-231 cells in a specific manner | higher and more uniform uptake compared to Pep61 |

Reference: patent US20240424152A1, “AGENTS, COMPOSITIONS, AND METHODS FOR CANCER DETECTION” (The Johns Hopkins University, priority 2021, published 2024)
